Test results from patent US8835428B2, “Diacylglycerol acyltransferase inhibitors” (Piramal Enterprises Limited, priority 2008, dated 2014).

Target: T1, hDGAT1 (Homo sapiens, UniProt O75907)
T1 construct: host or cells: Sf9 insect cells (baculovirus); microsomal preparation
T1 sequence (O75907 1-488): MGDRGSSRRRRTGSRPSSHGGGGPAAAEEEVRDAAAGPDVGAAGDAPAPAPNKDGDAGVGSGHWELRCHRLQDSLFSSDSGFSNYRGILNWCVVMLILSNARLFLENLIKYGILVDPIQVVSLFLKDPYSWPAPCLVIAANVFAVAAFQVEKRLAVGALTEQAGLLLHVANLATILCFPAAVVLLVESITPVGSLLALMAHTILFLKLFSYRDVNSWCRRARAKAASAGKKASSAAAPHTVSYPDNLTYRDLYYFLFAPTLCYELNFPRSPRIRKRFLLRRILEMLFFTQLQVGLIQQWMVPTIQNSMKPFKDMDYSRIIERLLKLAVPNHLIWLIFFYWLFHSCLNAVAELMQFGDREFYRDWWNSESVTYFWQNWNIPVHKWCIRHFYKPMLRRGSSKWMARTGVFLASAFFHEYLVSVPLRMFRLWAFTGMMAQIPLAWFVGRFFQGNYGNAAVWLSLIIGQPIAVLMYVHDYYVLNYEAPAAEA
Test: In-vitro DGAT1 assay (hDGAT1 microsomes from Sf9 cells, 14C oleoyl CoA, triglyceride formation)
Format: biochemical
In short: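 Human DGAT1 in baculovirus-infected Sf9 microsomes (2.5–10 μg), [14C]oleoyl-CoA with 409.5, 1228.5 or 1638 μM 1,2-dioleoyl-sn-glycerol, Tris-HCl pH 7.4 buffer with BSA. Compounds screened at 10, 5 and 1 μM in duplicate. Reaction 10 min at 37 °C; heptane-extracted [14C]triglyceride counted by scintillation.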

SMILES | inhibition at 10 µM [%] | further results
COC(=O)C(CC(C)C)NC(=O)c1cc(-c2cc(NC(=O)Nc3ccc(F)cc3)ccc2C)no1 (stereo not shown) [Example 131, Methyl 2-(3-(5-(3-(4-fluorophenyl)ureido)-2-methylphenyl)isoxazole-5-carboxamido)-4-methylpentanoate] | 0 to 50 | –
COC(=O)C(C)(C)NC(=O)c1cc(-c2ccc(NC(=O)Nc3ccccc3)cc2)no1 [Example 121, Methyl 2-methyl-2-(3-(4-(3-phenylureido)phenyl)isoxazole-5-carboxamido)propanoate] | 50 to 75 | –
CC(C)[C@H](NC(=O)c1cc(-c2ccc(NC(=O)Nc3ccc(F)c(F)c3)cc2)no1)C(=O)O [Example 130, (S)-2-(3-(4-(3-(3,4-difluorophenyl)ureido)phenyl)isoxazole-5-carboxamido)-3-methylbutanoic acid] | – | inhibition at 1 µM: 75 to 100%
COC(=O)[C@H]1CSC(c2cc(-c3ccc(Nc4nc5ccc(F)cc5s4)cc3)no2)=N1 [Example 11, (S)-2-{3-[4-(6-Fluoro-benzothiazol-2-ylamino)-phenyl]-isoxazol-5-yl}-4,5-dihydro-thiazole-4-carboxylic acid methyl ester] | 0 to 50 | –
O=C(O)CNC(=S)c1cc(-c2ccc(Nc3nc4ccc(F)cc4s3)cc2)no1 [Example 61, ({3-[4-(6-fluoro-benzothiazol-2-ylamino)-phenyl]-isoxazole-5-carbothioyl}-amino)-acetic acid] | 0 to 50 | –
Cc1ccc(NC(=O)Nc2ccc(-c3cc(C(=O)NCCCC(=O)O)on3)cc2)cc1 [Example 256, 4-(3-(4-(3-p-Tolylureido)phenyl)isoxazole-5-carboxamido)butanoic acid] | – | inhibition at 5 µM: 50 to 75%
COC[C@H](NC(=S)c1cc(-c2ccc(Nc3nc4ccc(F)cc4s3)cc2)no1)C(=O)O [Example 15, (S)-2-({3-[4-(6-Fluoro-benzothiazol-2-ylamino)-phenyl]-isoxazole-5-carbothioyl}-amino)-3-methoxy-propionic acid] | 50 to 75 | –
CC(C)[C@H](NC(=O)c1cc(-c2ccc(NC(=O)Nc3ccccc3F)cc2F)no1)C(=O)O [Example 144, (S)-2-(3-(2-Fluoro-4-(3-(2-fluorophenyl)ureido)phenyl)isoxazole-5-carboxamido)-3-methylbutanoic acid] | – | inhibition at 5 µM: 75 to 100%
COC(=O)CCCNC(=O)c1cc(-c2ccc(NC(=O)Nc3ccccc3F)cc2)no1 [Example 253, Methyl 4-(3-(4-(3-(2-fluorophenyl)ureido)phenyl)isoxazole-5-carboxamido)butanoate] | – | inhibition at 5 µM: 0 to 50%
CC(C)[C@@H](NC(=O)c1cc(-c2ccc(NS(=O)(=O)c3c(F)cccc3F)cc2)no1)C(=O)O [Example 317, (R)-2-(3-(4-(2,6-Difluorophenylsulfonamido)phenyl)isoxazole-5-carboxamido)-3-methylbutanoic acid] | – | inhibition at 1 µM: 0 to 50%
COC(=O)[C@@H](NC(=O)c1nc(-c2ccc(NS(=O)(=O)c3ccc(F)cc3F)cc2)no1)C(C)C [Example 350, (S)-methyl 2-(3-(4-(2,4-difluorophenylsulfonamido)phenyl)-1,2,4-oxadiazole-5-carboxamido)-3-methylbutanoate] | – | inhibition at 5 µM: 0 to 50%
COC(=O)C(NC(=O)c1cc(-c2ccc(NC(=O)Nc3ccccc3F)c(F)c2)no1)C(C)C (stereo not shown) [Example 147, Methyl 2-(3-(3-fluoro-4-(3-(2-fluorophenyl)ureido)phenyl)isoxazole-5-carboxamido)-3-methylbutanoate] | 50 to 75 | –
Cc1ccccc1S(=O)(=O)NC(=O)Nc1ccc(-c2cc(C(=O)NC(C(=O)O)C(C)C)on2)cc1 (stereo not shown) [Example 264, 3-Methyl-2-(3-(4-(3-(o-tolylsulfonyl)ureido)phenyl)isoxazole-5-carboxamido)butanoic acid] | – | inhibition at 5 µM: 0 to 50%
O=C(O)[C@@H]1CCCN1C(=O)c1cc(-c2cccc(Nc3nc4ccc(F)cc4s3)c2)no1 [Example 35, (S)-1-{3-[3-(6-Fluoro-benzothiazol-2-ylamino)-phenyl]-isoxazole-5-carbonyl}-pyrrolidine-2-carboxylic acid] | 0 to 50 | –
COC[C@H](NC(=NO)c1cc(-c2ccc(Nc3nc4ccc(F)cc4s3)cc2)no1)C(=O)O [Example 17, (S)-2-({3-[4-(6-Fluoro-benzothiazol-2-ylamino)-phenyl]-N-hydroxy-isoxazole-5-carboximidoyl}-amino)-3-methoxy-propionic acid] | 0 to 50 | –
CC(C)[C@H](NC(=O)c1cc(-c2ccc(NC(=O)Nc3ccccc3F)cc2)no1)C(=O)OC(C)(C)C [Example 300, (S)-tert-butyl 2-(3-(4-(3-(2-fluorophenyl)ureido)phenyl)isoxazole-5-carboxamido)-3-methylbutanoate] | – | inhibition at 5 µM: 50 to 75%

SMILES | inhibition at 10 µM [%] | further results
CC(C)[C@H](NC(=O)c1cc(-c2ccc(NC(=O)Nc3c(F)cccc3C(F)(F)F)cc2)no1)C(=O)O [Example 230, (S)-2-(3-(4-(3-(2-Fluoro-6-(trifluoromethyl)phenyl)ureido)phenyl)isoxazole-5-carboxamido)-3-methylbutanoic acid] | – | inhibition at 1 µM: 0 to 50%
CC(C)[C@H](NC(=O)c1cc(-c2ccc(NC(=O)Nc3ccc(F)cc3)cc2F)no1)C(=O)O [Example 146, (S)-2-(3-(2-fluoro-4-(3-(4-fluorophenyl)ureido)phenyl)isoxazole-5-carboxamido)-3-methylbutanoic acid] | – | inhibition at 1 µM: 50 to 75%
COC(=O)[C@H](NC(=O)c1cc(-c2ccc(Nc3nc4ccc(F)cc4s3)cc2)no1)C(C)C [Example 38, (R)-2-({3-[4-(6-Fluoro-benzothiazol-2-ylamino)-phenyl]-isoxazole-5-carbonyl}-amino)-3-methyl-butyric acid methyl ester] | 50 to 75 | –
C=C(NC(=O)c1cc(-c2ccc(NC(=O)Nc3ccc(C)cc3)cc2)no1)C(=O)O [Example 304, 2-(3-(4-(3-p-tolylureido)phenyl)isoxazole-5-carboxamido)acrylic acid] | – | inhibition at 1 µM: 50 to 75%
COC(=O)[C@@H](NC(=O)c1cc(-c2ccc(NC(=O)Nc3ccccc3)cc2)no1)C(C)C [Example 76, (S)-3-Methyl-2-({3-[4-(3-phenyl-ureido)-phenyl]-isoxazole-5-carbonyl}-amino)-butyric acid methyl ester] | 50 to 75 | –
COC(=O)[C@H](C(C)C)N(C)C(=O)c1cc(-c2ccc(NC(=O)Nc3cccc(C(F)(F)F)c3)cc2)no1 [Example 309, (S)-methyl 3-methyl-2-(N-methyl-3-(4-(3-(3-(trifluoromethyl)phenyl)ureido)phenyl)isoxazole-5-carboxamido)butanoate] | – | inhibition at 1 µM: 50 to 75%
O=C(O)[C@@H](NC(=NO)c1cc(-c2ccc(Nc3nc4ccc(F)cc4s3)cc2)no1)c1ccccc1 [Example 57, (S)-({3-[4-(6-Fluoro-benzothiazol-2-ylamino)-phenyl]-N-hydroxy-isoxazole-5-carboximidoyl}-amino)-phenyl-acetic acid] | 0 to 50 | –
COC(=O)c1ccc(NC(=O)Nc2ccc(-c3cc(C(=O)NC(C(=O)OC)C(C)C)on3)cc2)cc1 (stereo not shown) [Example 283, Methyl 4-(3-(4-(5-(1-methoxy-3-methyl-1-oxobutan-2-ylcarbamoyl)isoxazol-3-yl)phenyl)ureido)benzoate] | – | inhibition at 1 µM: 0 to 50%
Cc1cc(-c2cc(C(=O)NC(CC(C)C)C(=O)O)on2)ccc1NC(=O)Nc1c(F)cccc1F (stereo not shown) [Example 100, 2-(3-(4-(3-(2,6-Difluorophenyl)ureido)-3-methylphenyl)isoxazole-5-carboxamido)-4-methylpentanoic acid] | 0 to 50 | –
COC(=O)[C@H](CC(C)C)NC(=O)c1cc(-c2ccc(NC(=O)Nc3ccc(F)cc3)cc2)no1 [Example 86, (S)-2-[(3-{4-[3-(4-Fluoro-phenyl)-ureido]-phenyl}-isoxazole-5-carbonyl)-amino]-4-methyl-pentanoic acid methyl ester] | 0 to 50 | –
O=C(NC1(C(=O)O)CCCC1)c1cc(-c2ccc(Nc3nc4ccc(F)cc4s3)cc2)no1 [Example 63, 1-({3-[4-(6-Fluoro-benzothiazol-2-ylamino)-phenyl]-isoxazole-5-carbonyl}-amino)-cyclopentanecarboxylic acid] | 0 to 50 | –
CC(C)(NC(=O)c1cc(-c2ccc(NC(=O)Nc3ccccc3)cc2)no1)C(=O)O [Example 122, 2-methyl-2-(3-(4-(3-phenylureido)phenyl)isoxazole-5-carboxamido) propanoic acid] | 75 to 100 | –
COC(=O)C(NC(=O)c1cc(-c2ccc(NC(=O)Nc3ccc(F)cc3)cc2C)no1)C(C)C (stereo not shown) [Example 133, Methyl 2-(3-(4-(3-(4-fluorophenyl)ureido)-2-methylphenyl)isoxazole-5-carboxamido)-3-methylbutanoate] | 50 to 75 | –
COC(=O)[C@H](NC(=O)c1cc(-c2ccc(NC(=O)Nc3ccccc3Cl)cc2)no1)C(C)C [Example 220, (R)-Methyl 2-(3-(4-(3-(2-chlorophenyl)ureido)phenyl)isoxazole-5-carboxamido)-3-methylbutanoate] | – | inhibition at 1 µM: 0 to 50%
O=C(Nc1ccc(-c2cc(C(=O)N3CCC[C@H]3C(=O)O)on2)cc1)Nc1ccccc1F [Example 262, (S)-1-(3-(4-(3-(2-Fluorophenyl)ureido)phenyl)isoxazole-5-carbonyl) pyrrolidine-2-carboxylic acid] | – | inhibition at 1 µM: 50 to 75%
